Results reported in patent US7387779B2, “Anti-angiogenic proteins and fragments and methods of use thereof” (Beth Israel Deaconess Medical Center, priority 1998, dated 2008).

Assays:
[1] = test system: Caspase-3 in C-PAE cells; assay: Caspase-3 assay; assay type: cell-based, bovine; conditions: 20 μg/ml Tumstatin; TNF-α positive control
[2] = test system: Caspase-3 in C-PAE cells; assay: Caspase-3 assay; assay type: cell-based, bovine; conditions: TNF-α 80 ng/ml
Experimental: Tumstatin also altered cell morphology of C-PAE cells as monitored by phase contrast microscopy. After treating cells with 20 μg/ml of Tumstatin in the presence of 10% FCS for 24 hours on fibronectin-coated plates, the typical morphological features of apoptotic cells, membrane blebbing, cytoplasmic shrinkage, and chromatin condensation could be observed. […] Caspase-3 assay: Caspase-3 (CPP32) is an intracellular protease activated at the early stage of apoptosis, and initiates cellular breakdown by degrading structural and DNA repair proteins (Casciola-Rosen, L. et al., 1996, J. Exp. Med. 183:1957-64; Salvesen, G. S. et al., 1997, Cell 91:443-46). The protease activity of Caspase-3 was measured spectrophotometrically by detection of the chromophore (p-nitroanilide) cleaved from the labeled substrate (DEVD-pNA). C-PAE cells or PC-3 cells (0.5×10^6 per well) were plated onto a 6-well plate precoated with fibronectin (10 μg/ml) in DMEM supplemented with 10% FCS, and incubated overnight. The next day, the medium was replaced with DMEM containing 2% FCS and then incubated overnight at 37° C. Then cells were then stimulated with bFGF (3 ng/ml) in DMEM supplemented with 2% FCS, and also containing either TNF-α (80 ng/ml, positive control) or Tumstatin (10 μg/ml), and incubated for 24 hours. Controls received PBS buffer. After 24 hours, the supernatant cells were collected, and attached cells were trypsinized and combined with the supernatant cells. Cells were counted and resuspended in cell lysis buffer (Clontech) at a concentration of 4×10^7 cells/ml. The rest of the protocol followed the manufacturer's instructions (Clontech). A specific inhibitor of Caspase-3, DEVD-fmk (Asp-Glu-Val-Asp-fluoromethyl ketone) was used to confirm the specificity of the assay. The absorbance was measured in a microplate reader (Bio-Rad, Hercules, Calif., USA) at 405 nm. The assay was repeated three times for each cell type.
Apoptosis was also evaluated by measuring Caspase-3 activity as described in Example 27, above. The results are shown in FIG. 35, which is a histogram showing Caspase-3 activity as a measure of absorbance at OD405 (y-axis) of C-PAE cells treated (x-axis) with 5 μg/ml Tum-1, Tum-2, Tum-3 or Tum-4, or 80 ng/ml TNF-α or PBS buffer (control).
Caspase-3 activity was also assayed as described above. DEVD-fmk, a specific caspase-3 inhibitor, was used as an internal control to show specificity of Tumstatin-44-131. TNF-α (80 ng/ml) was used as a positive control. The experiments were repeated three times.
The protease activity of Caspase-3 in cells treated with T3 peptide was measured spectrophotometrically by detection of the chromophore (p-nitroanilide) cleaved from the labeled substrate (DEVD-pNA). […] In PC-3 nonendothelial cells, there was no difference in Caspase-3 activity between control treatments and T3 peptide-treated cells.

[3] = test system: C-PAE cells; assay: Annexin V-FITC apoptosis assay; assay type: cell-based, bovine; conditions: 5 μg/ml Arresten, 40 ng/ml TNFα
Experimental: Fifty thousand C-PAE cells were added to each well of a 6-well tissue culture plate in DMEM supplemented with 10% FBS for 12 hours. Fresh medium together and either 5 μg/ml Arresten or 40 ng/ml TNFα (positive control) was added at 2, 4 and 6 hour time points. Control wells received an equal of volume of PBS. Detached cells and adherent cells were pooled together and centrifuged at 1500 rpm. Cells were washed with binding buffer (Clontech, Palo Alto, Calif., USA), and phosphatidyl-serine (PS) externalization, an indicator of apoptosis, was measured by labeling with FITC-labeled annexin V (Clontech) according to manufacturer's instructions. Annexin-FITC labeled cells were counted using a FACStar Plus flow cytometer (Becton-Dickinson, Waltham, Mass., USA). For each treatment, 10,000 cells were counted and stored. […] Relative to controls, the percentage of annexin-V-stained (apoptotic) cells increased to about 27% at 2 hours, and near 20% at 4 and 6 hours for the positive control, TNFα. For Arresten-treated cells, the percentage of apoptotic cells was about 18% at 2 hours, and about 23% at 4 and 6 hours.
Annexin V-FITC Labeling. In order to establish apoptosis as the potential mode of action for Canstatin, Annexin V-FITC was used to label externalized phosphatidylserine (PS), to assess apoptotic cells. 0.5×10^6 C-PAE cells, PC-3, 786-O and HEK 293 cells were added to each well of a 6 well tissue culture plate in 10% FBS supplemented DMEM (BioWhittaker, Walkersville, Md., USA) overnight. The next day, fresh medium was added to all wells together with 40 ng/ml TNF-α (positive control) or 15 μg/ml Canstatin. Control cells received an equal volume of PBS. After 24 hours of treatment, medium containing detached cells was collected and attached cells were trypsinized and combined with detached cells and centrifuged at 3,000×g. Cells were then washed and phosphatidyl-serine externalization (an early apoptotic indicator) was measured by labeling with FITC-labeled annexin V (Clontech, Palo Alto, Calif., USA) according to the manufacturer's instructions. Annexin V-FITC-labeled cells were counted using a FAC Star Plus flow cytometer (Becton-Dickenson, Waltham, Mass., USA). For each treatment 15,000 cells were counted and stored in listmode.
C-PAE cells (0.5×10^6 per well) were seeded onto a 6-well plate in 10% FCS supplemented DMEM. The next day, fresh medium containing 10% FCS was added with either 80 ng/ml of TNF-α (positive control) or Tumstatin ranging from 0.02 to 20 μg/ml. Control cells received an equal volume of PBS. After 18 hours of treatment, medium containing floating cells was collected, and attached cells were trypsinized and centrifuged together with floating cells at 3,000×g. The cells were then washed in PBS and resuspended in binding buffer (10 mM HEPES/NaOH, pH 7.4, 140 mM NaCl, 2.5 mM CaCl2). Annexin V-FITC (Clontech, Palo Alto, Calif., USA) was added to a final concentration of 150 ng/ml, and the cells were incubated in the darkness for 10 minutes. The cells were washed again in PBS and resuspended in binding buffer. Annexin V-FITC labeled cells were counted using a FACStar Plus flow cytometer (Becton-Dickinson, Waltham, Mass., USA). For each treatment, 15,000 cells were counted and stored in listmode.
Apoptosis was measured by Annexin V-FITC assay, using the ApoAlert kit (Clontech, Palo Alto, Calif., USA). Propidium iodide was used to stain the nuclei of cells that had died by ways other than apoptosis.
The assay was performed as described above, by treating C-PAE cells with Tumstatin-44-131 for 18 hours. Control cells received PBS.

[4] = test system: PC-3 tumors; assay: PC-3 xenograft in athymic nude NCRNU mice (Example 46); assay type: in vivo; conditions: 1 mg/kg i.p. b.i.d., 20 days
Experimental: Tumstatin-44-131 was also tested for its ability to suppress tumor growth. Male athymic nude NCRNU mice, of 5-6 weeks of age and about 25 g, were implanted with […] approximately 2×10^6 PC-3 (prostate cancer carcinoma) cells into the dorsal subcutis. […] The tumors were allowed to grow to about 50 mm^3, and animals were then pair-matched into groups of 6 mice. Initial doses of protein or vehicle (PBS, control) were given on the day of pair-matching (Day 1). Tumstatin-44-131, Tum-5-125-C-A, or human endostatin in sterile PBS was intraperitoneally injected daily b.i.d. at doses ranging from 1 to 20 mg/kg for 20 days. Control animals received injection of PBS vehicle. In one treatment, continuous subcutaneous delivery of Tumstatin-44-131 was done using surgically implanted Alzet mini-pumps. The mice were weighed twice weekly, and tumor measurements were taken, starting on Day 1. Estimated mean tumor volumes were calculated, and at Day 21, the mice were weighed, sacrificed, and their tumors excised and examined by light microscopy and CD31 immunostaining. The mean treated tumor weight was divided by the mean control tumor weight was subtracted from one, and expressed as a percentage to give the tumor growth inhibition for each group.

[5] = test system: C-PAE cells; assay: Cell cycle analysis (propidium iodide, flow cytometry); assay type: cell-based, bovine
Experimental: To further evaluate the mechanism of T3 peptide on endothelial cell proliferation, the effect of T3 peptide on cell cycle progression was analyzed. In the growth arrested and contact inhibited cells (0 hour), 4.1% of cells were in S phase. […] This was true even at a maximal dosage of 100 μg/ml. The effect of the T3 peptide was dose-dependent, however, with the percentage of cells in S phase at 21.4% at 10 μg/ml, and 20.5% at 25 μg/ml. The percentage of cells in G0/G1 phase was 88.3% at 0 hour, 53.4% for the bFGF control, and 57.6%, 57.6% and 71.0% for treatments with T1, T6 and T3 peptide, respectively. […] Apoptotic Activity: Peptides T2, T3, T4, T5 and T6 (10 μg/ml concentration) were tested for their effect of viability of C-PAE cells using the MTT assay, as described in Examples 32 and 36 above. The results are shown in FIG. 43D, which is a histogram showing cell viability as measured at OD595 (y-axis), and treatments with the synthetic peptides (x-axis). […] TNF-α (100 ng/ml) was used to serve as a positive control in inducing endothelial cell apoptosis.
The effect of Tumstatin-44-131 and Tum-5-125-C-A on the cell cycle were assayed similarly to Example 4 above. Briefly, C-PAE cells were growth arrested by contact inhibition for 48 hours. The cells, at 10^5 cells per well, were then harvested and plated into a 12-well plate coated with fibronectin in 5% FCS and either recombinant Tumstatin-44-131 or Tum-5-125-C-A. After 21 hours, the cells were harvested and fixed in 70% ice-cold ethanol. The fixed cells were rehydrated a room temperature for 30 minutes in PBS containing 2% FCS and 0.1% Tween-20, centrifuged and resuspended in 0.5 ml of the same buffer. RNase (5 μg/ml) digestion was done at 37° C. for one hour, followed by staining with propidium iodide (5 μg/ml). The cells were then counted using an EPICS XL-MCL flow cytometer (Beckman-Coulter Instruments, Fullerton, Calif., USA).

[6] = test system: PC-3 cells; assay: MTT cell viability assay; assay type: cell-based, human; conditions: 0-50 μg/ml
Experimental: (§1) Cell viability was measured by MTT assay, as described above.
(§2) The effects of Tumstatin-44-131 and Tum-5-125-C-A on cell viability of C-PAE cells were not seen in control PC-3 and DU-145 cells, as shown in FIGS. 52C and 52D. […] The activity of Tumstatin-44-131 is therefore specific to endothelial cells.

[7] = test system: Goodpasture autoantibody; assay: Reactivity with Goodpasture autoantibody (western blotting); assay type: binding, human
Description: Goodpasture syndrome is an autoimmune disease characterized by pulmonary hemorrhage and/or rapidly progressing glomerulonephritis, which are caused by the disruption of glomerular and alveolar basement membranes through immune injury associated with autoantibody activity against α3(IV) NC1. Recently, the most probable disease-related pathogenic epitope was identified in the N-terminal portion (Kalluri, R. et al., 1996, J. Biol. Chem. 271:9062-8; Hellmark, T. et al., 1999, Kidney Int. 55:938-44), and was then further confined within the N-terminal 40 amino acids (Hellmark, T. et al., 1999, J. Biol. Chem. 274:25862-8; Netzer, K. O. et al., 1999, J. Biol. Chem. 274:11267-74). The N-terminal Tumstatin-44-131 consists of residues 44-131 of Tumstatin, which is outside of the Goodpasture autoepitope. To further confirm that Tumstatin-44-131 would not be detected by Goodpasture autoantibody, antisera from patients with Goodpasture was used for western blotting.

[8] = test system: DU-145 cells; assay: MTT cell viability assay; assay type: cell-based; conditions: 0-50 μg/ml
Experimental: as §1, §2

| Molecule | fold increase in Caspase-3 activity [1] | fold increase in Caspase-3 activity ([2]; 10 μg/ml E. Coli-expressed Tumstatin-44-131) | fold increase in Caspase-3 activity ([2]; 50 μg/ml T3 peptide) | percentage of annexin-V-stained (apoptotic) cells ([3]; 4 and 6 hours) | percentage of annexin-V-stained (apoptotic) cells ([3]; 2 hours) | tumor growth inhibition [4] | cell cycle arrest compared with Tumstatin-44-131 [5] | effect on viability of PC-3 cells [6] | detection by antisera / autoantibodies from patients with Goodpasture syndrome [7] | effect on viability of DU-145 cells [8] |
| --- | --- | --- | --- | --- | --- | --- | --- | --- | --- | --- |
| TNF-α [reference compound] | 1.7 fold | 4.5 fold | 4.5 fold | ~20% | about 27% |  |  |  |  |  |
| Tum-5-125-C-A: Tumstatin-44-131 with cysteine at position 125 mutated to alanine (SEQ ID NO:34) (protein, Tumstatin-5-125-C-A (amino acids 45-132 of SEQ ID NO10; alanine has been substituted for the cysteine residue at position 125 of the full-length Tumstatin molecule)) FSFLFVQGNQRAHGQDLGTLGSCLQRFTTMPFLFCNVNDVCNFASRNDYSYWLSTPALMPMNMAPITGRALEPYISRCTVAEGPAIAI |  |  |  |  |  | 92.0% | equivalent to treatment with Tumstatin-44-131 | not seen | failed to detect | not seen |
